Source: patent US10705094B2, “TNF receptor signaling modulator assay” (UCB Biopharma SRL, priority 2015, dated 2020)

How the values were obtained:
[1] = target: TNFα (Homo sapiens, UniProt P01375); experiment: Fluorescence probed thermal denaturation assay (Thermofluor) of TNFα; assay type: binding; conditions: TNFα + 5% DMSO + compound
Method: A fluorescence probed thermal denaturation assay was performed to assess the effect of the compounds on the thermal stability of TNFα as a measure of compound binding. The reaction mix contained 5 μl of 30×SYPRO® Orange dye (Invitrogen) and 5 μl of TNFα (at 1.0 mg/ml), 37.5 μl PBS, pH 7.4 and 2.5 μl of compound (at 2 mM in DMSO). 10 μl of the mix was dispensed in quadruplicate into a 384 PCR optical well plate and was run on a 7900HT Fast Real-Time PCR System ([…]). PCR System heating device was set at 20° C. to 99° C. with a ramp rate of 1.1° C./min; fluorescence changes in the wells were monitored by a Charge-coupled device (CCD). The fluorescence intensity increase was plotted as a function of temperature and the Tm calculated as the midpoint of this denaturation curve (determined as the point of inflection) (Table 1).
Thermofluor measures the change of melting temperature (Tm) of TNFα due to compound either stabilising or disrupting the protein.

[2] = target: TNFα trimer (Homo sapiens, UniProt P01375); experiment: Mass spectrometric analysis of compound binding to and stabilisation of TNFα trimer
Sequence of TNFα trimer (P01375 77-233 limits assumed): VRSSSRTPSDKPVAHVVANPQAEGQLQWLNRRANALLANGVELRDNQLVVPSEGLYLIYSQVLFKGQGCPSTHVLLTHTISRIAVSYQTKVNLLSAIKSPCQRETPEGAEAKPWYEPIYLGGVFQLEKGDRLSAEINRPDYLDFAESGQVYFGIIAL
Method: Mass spectrometry was typically performed using a Waters LCT-premier Time-of-Flight mass spectrometer or a Waters SynaptG2 Q-TOF mass spectrometer. Samples were introduced using an Advion Triversa Nanomate nanoflow infusion device which replaces the conventional spectrometer source, sample injection was via an “A” series chip with […] nozzle size at a nominal flow rate of 100 nl/min. Further modifications to the Waters LCT-premier Time-of-Flight mass spectrometer include a customised source cooling device allowing precise control of the source temperature and a commercial pressure regulation device giving precise control over the vacuum conditions in the source region. Together these modifications help retain the TNFα trimer in a native, folded conformation and facilitate the detection of complexes formed with test compounds of weak affinities.
Ions were generated using standard positive ion electrospray conditions resulting in multiple charging of TNFα.
Mass spectrometry is very sensitive to the buffer salts present in the protein sample. Typical buffer salts such as potassium or sodium phosphates have a severely detrimental affect on ionisation. Accordingly protein samples were pre-treated to remove these salts using a Zeba desalt spin column, the protein being exchanged into a mass spectrometry compatible buffer system, typically 50 mM Ammonium Acetate at pH 6.8.
Typically the test compounds were presented as 10 mM DMSO stock solutions such that when they are incubated with TNFα in solution the final DMSO concentration is 5%. […] This is evidenced by the changes in the number of charges acquired by the protein under the various conditions described.
Test compounds were prepared as 10 mM solutions in dimethylsulphoxide (DMSO). Therefore, it was necessary to establish the effect of DMSO on the native TNFα trimer in the absence of a test compound. DMSO was added to an aqueous solution of TNFα trimer to give a final concentration of 5% v/v and the mass spectrum acquired.
The compound of formula (1) was added to a solution containing TNFα and 5% v/v DMSO and the mass spectrum acquired.
Further evidence for the stabilization of the trimeric form of TNFα by the test compounds was obtained from analyzing the samples under harsher ionization conditions that tend to favour breakdown of the native trimeric form into monomers.
Incubation of a library of test compounds, including the compound of formula (1) with TNFα was monitored by mass spectrometry under soft ionization conditions. […] This confirms that the test compounds, including the compound of formula (1), have a different mode of action to known compounds, which stabilize the dimeric form of TNFα.
A species of lower molecular weight (˜473 Da appears to bind at less than 5% occupancy). C87 has a molecular weight of 503 Da.

[3] = tested on: TNFα-induced IL-8 production; experiment: Inhibition of TNFα-induced IL-8 production in human monocytes; assay type: cell-based; conditions: Monocyte, 18 h
Method: Venous blood from healthy donors was collected by venupuncture into sodium/heparin containing tubes (BD Biosciences). Peripheral blood mononuclear cells (PBMC) were isolated by density gradient centrifugation with Ficoll Paque (Amersham Biosciences). Briefly, 10 mL of blood was diluted 1:1 (v/v) with RPMI 1640 (Gibco) and carefully layered onto 20 mL Ficoll Paque. Cells were spun down for 30 minutes (min) at 470 g, the PBMC collected, washed once in RPMI 1640 and any remaining contaminating erythrocytes lysed in erythrocyte lysis buffer (1 g/L KHCO3, 8.3 g/L NH4Cl, 0.0372 g/L EDTA). Isolation of monocytes from the PBMC was performed using CD14+ Magnetic MicroBeads (Miltenyi Biotec) according to the manufacturer's instructions. Briefly, PBMC were resuspended in Dulbecco's modified Eagle's medium containing 5% BSA (Sigma) and 2 mM EDTA (Sigma) at 1×10^7 cells/ml. 25 μL of CD14 MicroBeads per 10^7 total cells were incubated for 15 min at room temperature. The magnetic separation was performed using a LS column (Miltenyi Biotec). […]
Human IL-8 was measured in the cell culture supernatants using enzyme-linked immunosorbent assay (ELISA) kits from R&D Systems Ltd. according to the manufacturer's instructions. […] Plates were read at a wavelength of 630 nm with correction at 470 nm.

[4] = tested on: TNFα stimulated neutrophil recruitment into the peritoneal cavity; experiment: Neutrophil recruitment in mice, compound given orally before i.p. hTNFα; assay type: in vivo, Balb/c mice
Method: In a further experiment, mice were treated with hTNFα ([…]) and the compound of formula (1) was administered orally (p.o.).
The compound of formula (1) was made into a suspension in 1% methylcellulose vehicle using a covaris machine.
An anti-human TNFα monoclonal antibody (anti-hTNFα, UCB) was also utilised as a positive control in this study.
Ten male Balb/c mice were used per group except in the group that received anti-hTNFα for which 4 mice were used.
All mice were killed by cervical dislocation two hours post-injection of hTNFα (t=2 h) and the peritoneal cavity was lavaged and neutrophil numbers measured as described above.

Sequence of TNFα (P01375 77-233 limits assumed): as above

Q: `Cc1ccc(C)c(Cn2c(C(O)c3ccncc3)nc3ccc(-c4cnn(C)c4)cc32)c1` (stereo not shown) [Compound (2), [1-(2,5-Dimethylbenzyl)-6-(1-methyl-1H-pyrazol-4-yl)-1H-benzimidazol-2-yl](pyridin-4-yl)methanol] was tested. Which “Tm difference (=(TNF + cpd) − (TNF + DMSO))” value [1] did it give?
A: Its value is 17.1.

Q: For `Cc1ccc(C)c(Cn2c(C(O)c3ccncc3)nc3ccccc32)c1` (stereo not shown) [Compound (1), [1-(2,5-Dimethylbenzyl)-1H-benzimidazol-2-yl](pyridin-4-yl)methanol], which “stabilisation of trimeric TNFα (charge state envelope)” value ([2]; 5% v/v DMSO, soft ionisation) is on record?
A: The value was “stabilization of the trimeric TNFα complex over and above that observed in the absence of DMSO”.

Q: What about the “quantity of TNFα monomer detected” value ([2]; harsher ionization conditions, data not shown) of the same compound?
A: The value was “significantly reduced”.

Q: What about the “binding to the monomeric form of TNFα” value ([2]; soft ionization conditions) of the same compound?
A: Its value is “not observed to bind”.

Q: What about the “stabilization of the dimeric form of TNFα” value ([2]; soft ionization conditions) of the same compound?
A: Its value is “no evidence for stabilization”.

Q: What about the stoichiometry of binding ([2]; soft ionization conditions) of the same compound?
A: The stoichiometry of binding was “one molecule of the compound of formula (1) per TNFα trimer”.

Q: And the “Tm difference (=(TNF + cpd) − (TNF + DMSO))” value [1]?
A: Its value is 11.8.

Q: What about the IC50 [3] of the same compound?
A: Its IC50 is 0.454 µM.

Q: And the “reduction of TNFα stimulated neutrophil recruitment into the peritoneal cavity” value ([4]; 30 mg/kg p.o. 30 minutes before hTNFα 0.03 μg/kg i.p.)?
A: The value was 49%.

Q: What about the “reduction of TNFα stimulated neutrophil recruitment into the peritoneal cavity” value ([4]; 100 mg/kg p.o. 30 minutes before hTNFα 0.03 μg/kg i.p.) of the same compound?
A: Its value is 79%.
